The target of series [1] is mGFP-K-RASG12V (Homo sapiens (Human), UniProt P01116, G12V). As to the kind of experiment: K-Ras mislocalization assay (confocal microscopy, Manders coefficient). Format: cell-based. The arrangement: key to Emax: Manders coefficient: fraction of mCherry-CAAX co-localizing with GFP-K-Ras. To be noted: for Emax: maximal effect, Manders coefficient; for Emax / EC50 / IC50: MDCK cells; for Emax / EC50: 48 h; for EC50: batch 4 compounds, title calls it IC50, read-out: EC50; for IC50: 48 h treatment, read-out: IC50 (μM), KRASG12V mislocalization. The procedure, abridged:
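Readout is the Manders coefficient: share of mCherry-CAAX overlapping mGFP-K-RASG12V in confocal images, proportional to K-Ras mislocalization. Stable MDCK co-expressing lines were exposed 48 h to various drug concentrations or 0.1% DMSO vehicle, then paraformaldehyde-fixed.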

Series [2] deals with MDCK cells co-expressing GFP-K-RASG12V and mCherry-CAAX. As to the kind of experiment: Cytotoxicity in mislocalization screen (death of all cells in well). To be noted: drug caused death of all cells in well at 30 μM.

This note sets out measurements from patent US12043602B2, “Fendiline derivatives” (The Board of Regents of the University of Texas System, priority 2019, dated 2024).

Molecule `C[C@@H](NCCN1c2ccccc2CCc2ccccc21)c1ccccc1` [NY0553, (R)-2-(10,11-dihydro-5H-dibenzo[b,f]azepin-5-yl)-N-(1-phenylethyl)ethan-1-amine] showed an Emax in series [1] of 0.452. Also, the “Cytotoxic at 30 μM” value in series [2] is “No”.

In the case of `COC(=O)[C@@H](c1ccccc1)N(CC=C(c1ccccc1)c1ccccc1)C(=O)NC(C)(C)C` [NY0554, methyl (R)-2-(3-(tert-butyl)-1-(3,3-diphenylallyl)ureido)-2-phenylacetate], in series [1], the EC50 came to 1200 nM and the Emax was determined as 0.327. For the same molecule, the “Cytotoxic at 30 μM” value in series [2] is “Yes (even”.

In the case of `O=C(O)[C@H](NCC=C(c1ccccc1)c1ccccc1)c1ccccc1` [NY0555, (R)-2-((3,3-diphenylallyl)amino)-2-phenylacetic acid], in series [1], the EC50 is 4370 nM and the Emax came out at 0.332. Also, in series [2], the “Cytotoxic at 30 μM” value is reported as “No”.

In series [1], `CN1CCN(C(=O)[C@H](NCC=C(c2ccccc2)c2ccccc2)c2ccccc2)CC1` [NY0557, (R)-2-((3,3-diphenylallyl)amino)-1-(4-methylpiperazin-1-yl)-2-phenylethan-1-one] showed an Emax of 0.732. For the same molecule, in series [2], the “Cytotoxic at 30 μM” value is listed as “No”.

Regarding `COC(=O)[C@H](CC(C)C)NC(=O)[C@H](NCC=C(c1ccccc1)c1ccccc1)c1ccccc1` [NY0566, methyl ((R)-2-((3,3-diphenylallyl)amino)-2-phenylacetyl)-L-leucinate], in series [1], the EC50 is 5930 nM and the Emax is 0.718. Further, in series [2], the “Cytotoxic at 30 μM” value is “No”.

Consider `CC(=O)NNC(=O)[C@H](NCC=C(c1ccccc1)c1ccccc1)c1ccccc1` [NY0568, (R)-N′-acetyl-2-((3,3-diphenylallyl)amino)-2-phenylacetohydrazide], for which, in series [1], the Emax is given as 0.364. For the same molecule, the “Cytotoxic at 30 μM” value in series [2] is on record as “No”.

`NC(=O)[C@H](NCC=C(c1ccccc1)c1ccccc1)c1ccccc1` [NY0569, (R)-2-((3,3-diphenylallyl)amino)-2-phenylacetamide]: in series [1], the Emax is 0.321. Besides, the “Cytotoxic at 30 μM” value in series [2] is “No”.

Take `Cc1nnc([C@H](NCC=C(c2ccccc2)c2ccccc2)c2ccccc2)o1` [NY0570, (R)-N-((5-methyl-1,3,4-oxadiazol-2-yl)(phenyl)methyl)-3,3-diphenylprop-2-en-1-amine]: the Emax in series [1] was found to be 0.397. The “Cytotoxic at 30 μM” value in series [2] is reported as “No”.

With `C[C@@H](NCC(=O)N1c2ccccc2Sc2ccccc21)c1ccccc1` [NY0572, (R)-1-(10H-phenothiazin-10-yl)-2-((1-phenylethyl)amino)ethan-1-one], the Emax in series [1] is 0.565. Besides, the “Cytotoxic at 30 μM” value in series [2] is recorded as “No”.

Regarding `C[C@@H](NCC(=O)N1c2ccccc2Sc2ccccc21)c1ccc(F)cc1` [NY0573, (R)-2-((1-(4-fluorophenyl)ethyl)amino)-1-(10H-phenothiazin-10-yl)ethan-1-one], in series [1], the EC50 was 1750 nM and the Emax is on record as 0.733. Also, the “Cytotoxic at 30 μM” value in series [2] was “No”.

As to `C[C@@H](NCCN1c2ccccc2Sc2ccccc21)c1ccccc1` [NY0574, (R)-N-(2-(10H-phenothiazin-10-yl)ethyl)-1-phenylethan-1-amine], in series [1], the EC50 was found to be 4820 nM and the Emax worked out at 0.842. Besides, in series [2], the “Cytotoxic at 30 μM” value was “No”.

As for `C[C@@H](NCCN1c2ccccc2Sc2ccccc21)c1ccc(F)cc1` [NY0575, (R)-N-(2-(10H-phenothiazin-10-yl)ethyl)-1-(4-fluorophenyl)ethan-1-amine], in series [1], the EC50 stood at 4300 nM and the Emax stood at 0.484. Also, in series [2], the “Cytotoxic at 30 μM” value is listed as “No”.

For `C[C@@H](NCC(=O)N1c2ccccc2CCc2ccccc21)c1ccc(F)cc1` [NY0583, (R)-1-(10,11-dihydro-5H-dibenzo[b,f]azepin-5-yl)-2-((1-(4-fluorophenyl)ethyl)amino)ethan-1-one], in series [1], the EC50 was found to be 3910 nM and the Emax stood at 0.725. Also, in series [2], the “Cytotoxic at 30 μM” value was “No”.

Take `C[C@@H](NCC(=O)N1c2ccccc2CCc2ccccc21)c1ccccc1` [NY0584, (R)-1-(10,11-dihydro-5H-dibenzo[b,f]azepin-5-yl)-2-((1-phenylethyl)amino)ethan-1-one]: in series [1], the EC50 came out at 6940 nM and the Emax is 0.697. For the same molecule, in series [2], the “Cytotoxic at 30 μM” value is on record as “No”.

As for `COc1ccc([C@@H](C)N(CC=C(c2ccccc2)c2ccccc2)CCN2CCN(C(=O)NC(C)(C)C)CC2)cc1` [NY0587, (R)-N-(tert-butyl)-4-(2-((3,3-diphenylallyl)(1-(4-methoxyphenyl)ethyl)amino)ethyl) piperazine-1-carboxamide], in series [1], the EC50 amounted to 1830 nM and the Emax is 0.827. Also, the “Cytotoxic at 30 μM” value in series [2] is “No”.

`CCN1CCN(CCN(CC=C(c2ccccc2)c2ccccc2)[C@H](C)c2ccc(OC)cc2)CC1` [NY0589, (R)-N-(2-(4-ethylpiperazin-1-yl)ethyl)-N-(1-(4-methoxyphenyl)ethyl)-3,3-diphenylprop-2-en-1-amine]: in series [1], the EC50 amounted to 2180 nM and the Emax came out at 0.895. For the same molecule, the “Cytotoxic at 30 μM” value in series [2] is “Yes”.

The molecule `COc1ccc([C@@H](C)N(CC=C(c2ccccc2)c2ccccc2)CCN2CCN(C(=O)C(C)F)CC2)cc1` (stereo partly drawn) [NY0591, 1-(4-(2-((3,3-diphenylallyl)((R)-1-(4-methoxyphenyl)ethyl)amino)ethyl)piperazin-1-yl)-2-fluoropropan-1-one] yielded an Emax in series [1] of 0.825. The “Cytotoxic at 30 μM” value in series [2] is “No”.

Consider `C(CN(CCN1CCCC1)[C@@H]1C[C@H]1c1ccccc1)=C(c1ccccc1)c1ccccc1` [NY0592, (1R,2S)-N-(3,3-diphenylallyl)-2-phenyl-N-(2-(pyrrolidin-1-yl)ethyl)cyclopropan-1-amine], for which, in series [1], the EC50 amounted to 5600 nM and the Emax worked out at 0.685. Further, the “Cytotoxic at 30 μM” value in series [2] was “Yes”.

`COc1ccc([C@@H](C)N(CC=C(c2ccccc2)c2ccccc2)CCN2CCC2)cc1` [NY0593, (R)-N-(2-(azetidin-1-yl)ethyl)-N-(1-(4-methoxyphenyl)ethyl)-3,3-diphenylprop-2-en-1-amine]: in series [1], the IC50 came out at 0.5 µM, the EC50 worked out at 492 nM and the Emax is given as 0.694. The molecule also came in with an Emax in series [1] (listed as 12i) of 0.69 ± 0.02. Moreover, the “fold potency loss / decreased potency” value in series [1] (versus 12f (NY0244)) stood at 5 fold. Besides, in series [2], the “Cytotoxic at 30 μM” value is given as “Yes”.

Consider `CCCN1CCN(CCN(CC=C(c2ccccc2)c2ccccc2)[C@H](C)c2ccc(OC)cc2)CC1` [NY0594, (R)-N-(2-(4-propylpiperazin-1-yl)ethyl)-N-(1-(4-methoxyphenyl)ethyl)-3,3-diphenylprop-2-en-1-amine], for which, in series [1], the EC50 came out at 3260 nM and the Emax was determined as 0.75. Further, the “Cytotoxic at 30 μM” value in series [2] is “Yes”.

`C(CN(CC=C(c1ccccc1)c1ccccc1)[C@@H]1C[C@H]1c1ccccc1)=C(c1ccccc1)c1ccccc1` [NY022601, (1R,2S)-N,N-bis(3,3-diphenylallyl)-2-phenylcyclopropanamine]: in series [1], the IC50 was determined as 0.42 µM and the Emax worked out at 0.713. In addition, in series [2], the “Cytotoxic at 30 μM” value is on record as “No”.

For the molecule `C(CN[C@@H]1C[C@H]1c1ccccc1)=C(c1ccccc1)c1ccccc1` [NY022602, (1R,2S)-N-(3,3-diphenylallyl)-2-phenylcyclopropanamine], in series [1], the IC50 was 0.16 µM and the Emax was found to be 0.637. The “Cytotoxic at 30 μM” value in series [2] was “No”.

Turning to `C[C@@H](CN(CC=C(c1ccccc1)c1ccccc1)CC=C(c1ccccc1)c1ccccc1)c1ccccc1` [NY022701, (R)-N-(3,3-diphenylallyl)-3,3-diphenyl-N-(2-phenylpropyl)prop-2-en-1-amine], the Emax in series [1] was found to be 0.494. For the same molecule, the “Cytotoxic at 30 μM” value in series [2] was “No”.

With `C[C@@H](CNCC=C(c1ccccc1)c1ccccc1)c1ccccc1` [NY022702, (R)-3,3-diphenyl-N-(2-phenylpropyl)prop-2-en-1-amine], in series [1], the half-inhibitory concentration (IC50) came out at 16.9 µM and the Emax stood at 0.608. Moreover, the “Cytotoxic at 30 μM” value in series [2] is listed as “No”.

Consider `C(CN(CC=C(c1ccccc1)c1ccccc1)C1(c2ccccc2)CC1)=C(c1ccccc1)c1ccccc1` [NY040401, N,N-bis(3,3-diphenylallyl)-1-phenylcyclopropanamine], for which, in series [1], the IC50 worked out at 1.46 µM and the Emax turned out to be 0.778. The “Cytotoxic at 30 μM” value in series [2] is recorded as “No”.

Consider `COC(=O)[C@@H](c1ccccc1)N(CC=C(c1ccccc1)c1ccccc1)CC=C(c1ccccc1)c1ccccc1` [NY055101, methyl (R)-2-(bis(3,3-diphenylallyl)amino)-2-phenylacetate], for which, in series [1], the EC50 turned out to be 8910 nM and the Emax was determined as 0.424. The “Cytotoxic at 30 μM” value in series [2] is given as “Yes”.

Consider `COC(=O)[C@H](NCC=C(c1ccccc1)c1ccccc1)c1ccccc1` [NY055102, Methyl (R)-2-((3,3-diphenylallyl)amino)-2-phenylacetate], for which the Emax in series [1] is reported as 0.424. In addition, the “Cytotoxic at 30 μM” value in series [2] is on record as “No”.

Regarding `COc1ccc([C@@H](C)N(CC=C(c2ccccc2)c2ccccc2)C(=O)CN2CCCC2)cc1` [PW124, (R)-N-(3,3-diphenylallyl)-N-(1-(4-methoxyphenyl)ethyl)-2-(pyrrolidin-1-yl)acetamide], in series [1], the IC50 amounted to 0.553 µM and the Emax came to 0.452. The “Cytotoxic at 30 μM” value in series [2] is “Yes”.

What is called EC50 is the concentration giving half of the maximal effect. The IC50 is the point on the concentration scale where inhibition reaches its midpoint.
